Reference: PMC4335978, “Regulation of nitrite resistance of the cytochrome cbb3 oxidase by cytochrome c ScyA in Shewanella oneidensis” (MicrobiologyOpen, 2014)

Key:
[1] = molecular target: T1, cbb3-HCO (cytochrome cbb3 oxidase) (Shewanella oneidensis, UniProt Q8EEL5); test: oxygen consumption (O2 electrode), membranes of Δcyd strain; assay type: biochemical; details: ~70 μmol/L O2; ascorbate + TMPD as electron donor; no added ScyA
T1 construct: gene ccoN; native ccoNOQP complex in membrane preparations of S. oneidensis Δcyd strain (bd oxidase absent), not purified, no tag; with Cbb3-type cytochrome c oxidase subunit II CcoO; Cbb3-type cytochrome c oxidase subunit III CcoP; Cbb3-type cytochrome c oxidase subunit IV CcoQ

[2] = molecular target: T2, bd oxidase (cytochrome bd) (Shewanella oneidensis, UniProt Q8EC58); test: oxygen consumption (O2 electrode), membranes of Δcco strain; assay type: biochemical; details: ~70 μmol/L O2; ubiquinol-1 as electron donor; no added ScyA
T2 construct: gene cydA; native cydABX complex in membrane preparations of S. oneidensis Δcco strain (cbb3 oxidase absent), not purified, no tag; with Cytochrome bd ubiquinol oxidase subunit II CydB; Cytochrome bd oxidase small subunit CydX
T2 sequence (Q8EC58 1-518): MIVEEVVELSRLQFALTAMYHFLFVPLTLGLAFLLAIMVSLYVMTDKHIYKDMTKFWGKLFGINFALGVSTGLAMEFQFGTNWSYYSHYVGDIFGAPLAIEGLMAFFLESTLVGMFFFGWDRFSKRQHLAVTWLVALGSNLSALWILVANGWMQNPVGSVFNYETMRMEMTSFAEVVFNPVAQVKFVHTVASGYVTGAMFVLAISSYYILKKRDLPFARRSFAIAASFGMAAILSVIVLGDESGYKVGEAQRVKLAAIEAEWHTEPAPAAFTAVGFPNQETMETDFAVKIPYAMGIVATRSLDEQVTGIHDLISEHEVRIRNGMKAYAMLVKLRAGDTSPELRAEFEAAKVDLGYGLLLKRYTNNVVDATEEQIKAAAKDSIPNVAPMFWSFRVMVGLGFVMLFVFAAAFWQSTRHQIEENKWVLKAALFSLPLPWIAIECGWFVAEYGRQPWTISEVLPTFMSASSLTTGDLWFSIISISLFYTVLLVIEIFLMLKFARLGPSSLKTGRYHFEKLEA
T2 sequence (Q8EC59 1-379 partner): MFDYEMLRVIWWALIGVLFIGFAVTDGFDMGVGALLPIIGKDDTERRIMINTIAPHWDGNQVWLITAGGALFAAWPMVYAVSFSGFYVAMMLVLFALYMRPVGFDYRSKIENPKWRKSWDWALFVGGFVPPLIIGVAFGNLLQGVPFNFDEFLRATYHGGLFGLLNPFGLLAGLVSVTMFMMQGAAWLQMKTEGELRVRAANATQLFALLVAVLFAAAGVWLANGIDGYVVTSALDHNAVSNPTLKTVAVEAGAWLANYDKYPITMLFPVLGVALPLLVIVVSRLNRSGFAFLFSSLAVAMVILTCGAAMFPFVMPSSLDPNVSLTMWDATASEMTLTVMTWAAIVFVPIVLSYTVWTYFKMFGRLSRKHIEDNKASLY
T2 sequence (Q8EC60 1-38 partner): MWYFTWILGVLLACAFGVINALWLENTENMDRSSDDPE

T1 sequence (Q8EEL5 1-478): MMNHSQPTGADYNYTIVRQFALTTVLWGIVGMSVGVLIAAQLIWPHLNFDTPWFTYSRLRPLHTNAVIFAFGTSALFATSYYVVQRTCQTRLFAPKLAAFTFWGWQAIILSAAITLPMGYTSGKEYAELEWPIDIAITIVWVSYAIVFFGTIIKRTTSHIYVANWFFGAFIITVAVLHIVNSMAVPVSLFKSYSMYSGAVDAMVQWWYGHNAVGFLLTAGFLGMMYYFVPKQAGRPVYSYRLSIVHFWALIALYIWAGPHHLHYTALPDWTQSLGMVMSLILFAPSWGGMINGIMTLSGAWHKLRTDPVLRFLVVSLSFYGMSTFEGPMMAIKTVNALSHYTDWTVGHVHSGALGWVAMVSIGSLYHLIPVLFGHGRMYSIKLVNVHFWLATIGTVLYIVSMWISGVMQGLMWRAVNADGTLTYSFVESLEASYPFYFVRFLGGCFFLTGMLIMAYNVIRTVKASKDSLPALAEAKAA
T1 sequence (Q8EEL6 1-208 partner): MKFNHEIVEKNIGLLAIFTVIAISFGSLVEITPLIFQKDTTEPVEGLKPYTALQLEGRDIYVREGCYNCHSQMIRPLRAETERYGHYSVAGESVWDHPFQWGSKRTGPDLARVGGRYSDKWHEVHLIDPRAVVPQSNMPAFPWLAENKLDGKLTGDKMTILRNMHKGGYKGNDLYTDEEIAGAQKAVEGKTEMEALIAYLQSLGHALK
T1 sequence (Q8EEL8 1-322 partner): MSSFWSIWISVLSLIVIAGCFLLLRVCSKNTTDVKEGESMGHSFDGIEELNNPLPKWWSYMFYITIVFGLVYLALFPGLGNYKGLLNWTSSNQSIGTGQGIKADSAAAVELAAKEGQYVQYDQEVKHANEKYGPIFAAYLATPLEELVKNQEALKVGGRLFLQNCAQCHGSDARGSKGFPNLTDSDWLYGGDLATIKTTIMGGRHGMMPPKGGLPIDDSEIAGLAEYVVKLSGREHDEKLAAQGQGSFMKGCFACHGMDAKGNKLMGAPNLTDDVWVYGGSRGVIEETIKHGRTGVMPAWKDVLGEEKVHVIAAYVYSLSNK
T1 sequence (Q8EEL7 1-58 partner): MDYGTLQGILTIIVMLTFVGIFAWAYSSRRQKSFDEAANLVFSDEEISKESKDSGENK

## O=NO [nitrite]
[1]
  IC50: ~50 nM
[2]
  IC50: ~180 nM
